These results are taken from patent publication US6630572B1, “Thrombin derived polypeptides: compositions and methods for use” (The Board of Regents, University of Texas Syatems, priority 1986, dated 2003).

Test [1] relates to high-affinity thrombin receptor. As to the kind of experiment: Competition for specific [125I]-alpha-thrombin binding to ME cells. Set-up: species or system mouse. The note with it: for fold higher concentration than p508-530 required for 30% inhibition of [125I]-alpha-thrombin binding: ME cells; for Conc. at Maximal % Inhibition / Concentration Required for 30% Inhibition / Maximal % Inhibition: [125I]-alpha-thrombin (1 nM), quiescent ME cells; for Concentration Required for 30% Inhibition / Maximal % Inhibition: 23° C.; for Maximal % Inhibition: at the conc. printed below the value. The protocol:
Specific techniques whereby the competitive binding studies were performed are set out below. Human alpha-thrombin was iodinated in the presence of benzamidine (an active-site competitive inhibitor), lactoperoxidase, and Na[^125I]. […] These iodinated preparations retained approximately 80% of their fibrinogen clotting activity. The ability of the synthetic peptides to compete for specific [^125I]-alpha-thrombin binding to fibroblasts was measured on nonproliferating, mitogenically responsive cultures in 24 well plates (Falcon) at a cell density of approximately 5×10^4 cells/cm^2 as previously described (Carney and Cunningham, Cell, 15:1341-1349 (1978)). The medium on the cells was changed to binding medium (serum-free DV medium containing 0.5% (w/v) bovine serum albumin buffered with 15 mM HEPES at pH 7.0). The cells were equilibrated at 23° C. for 30 minutes, and the medium was changed to binding medium containing [^125I]-alpha-thrombin (10 ng/ml) with the indicated concentrations of the peptides. After 2 hours at 23° C., the assay was terminated by quickly rinsing the cells four times with ice-cold PBS. The cells were dissolved in 1 ml of 0.5 N NaOH and the total radioactivity was measured using a Beckman gamma counter. Nonspecific binding was measured as the radioactivity bound to cultures after incubation in binding medium containing a 100-fold excess of unlabeled alpha-thrombin. Specific binding was calculated by subtracting nonspecific binding from total radioactivity bound to cultures. […] Scatchard analysis of the direct binding of [^125I]-labeled p508-530 indicated a KD of approximately 6×10^−8 M (data not shown). […] Various concentrations of peptides and [^125I]-alpha-thrombin (1 nM) were incubated with quiescent ME cells for […] at 23° C. Specific binding of [^125I]-alpha-thrombin was defined as described in Example 3.

Test [2] relates to fibroblast. The note with it: compared with fibronectin-specific peptides; cited from earlier work.
The subject of test [3] is NIL cells. As to the kind of experiment: [3H]-thymidine incorporation (DNA synthesis) in quiescent NIL cells. The test is classed as cell-based, hamster. The note with it: for effect on alpha-thrombin stimulated DNA synthesis: quiescent NIL cells, increasing peptide concentrations, 2 and 4 nM alpha-thrombin, FIG. 6. Here is the method: Primary cultures of fibroblasts were prepared from 9- to 13-day old embryos of NIH-swiss outbred mice as described by Carney and Cunningham, Cell, 15:1341-1349, (1978). NIL cells, an established strain of hamster fibroblasts, were maintained as stock cultures and subcultured every four days. All cells were grown in Dulbecco-Vogt modified Eagle's (DV) medium supplemented with 10% (v/v) bovine calf serum (CS), in a humidified atmosphere of 5% CO2 in air at 37° C. Quiescent cultures were prepared by subculturing stock cells from 100 mm dishes, using 0.05% (w/v) trypsin and 0.02% EDTA (w/v) in phosphate-buffered saline (PBS) and plating them in 24-well culture plates in DV medium supplemented with 10% (v/v) CS at 6×10^4 cells/cm^2. After allowing the cells to attach overnight, the medium was removed and the cells were rinsed with DV medium containing no serum. The cells were incubated in this serum-free medium for 48 hours before the indicated experiments. […] The effects of the synthetic peptides on DNA synthesis were determined by measuring the incorporation of methyl-[^3H]-thymidine (TdR, ICN Pharmaceuticals, Irvine, Calif.) during a 2 hour incubation generally from 22 hours after addition of peptides and/or thrombin (Stiernberg et al., J. Cell Physiol., 120:209-285 (1984)). After incubation, the cells were extracted and rinsed with ice-cold 10% (w/v) trichloroacetic acid (TCA). The acid precipitable material was dissolved overnight in 0.5 ml 0.5 N KOH at 23° C. HCl (1 N), 0.25 ml, was added and the solution was counted in 10 ml of RediSolv-HPb (Beckman Instruments, Houston, Tex.) scintillation fluid. The present inventors first tested the ability of p508-530 to stimulate DNA synthesis in non-proliferating cultures of ME or NIL cells. […] However, in combination with 2 nM alpha-thrombin, 0.1 uM p508-530 stimulated a 6- or greater than 2-fold increase in incorporation of [^3H]-thymidine into DNA in ME cells when compared to parallel cultures left untreated or treated with alpha-thrombin alone, respectively (FIG. 4A). A similar mitogenic stimulation was also observed in NIL hamster cells, although it required a slightly higher concentration of thrombin and peptides (FIG. 4B). […] With NIL cells, a similar correlation was observed between the mitogenic concentrations of p508-530 and the concentrations required to inhibit thrombin binding, although at higher levels than required with ME cells. […] It was predicted, therefore, that if p508-530 was generating a receptor occupancy-related signal, its addition to cells in combination with PMA should stimulate mitogenesis. […] This stimulation occurred at approximately the same concentration of peptide as that required to stimulate DNA synthesis in the presence of low concentrations of alpha-thrombin. […]
(Incorporation of labelled thymidine or its analogues reports DNA synthesis.)

Test [4] relates to ME cells. The experiment in a line: [3H]-thymidine incorporation (DNA synthesis) in quiescent ME cells. The note with it: for inhibition of alpha-thrombin stimulated DNA synthesis: 625 nM peptide, FIG. 7. The class given is cell-based, mouse. Here is the method: Primary cultures of fibroblasts were prepared from 9- to 13-day old embryos of NIH-swiss outbred mice as described by Carney and Cunningham, Cell, 15:1341-1349, (1978). NIL cells, an established strain of hamster fibroblasts, were maintained as stock cultures and subcultured every four days. All cells were grown in Dulbecco-Vogt modified Eagle's (DV) medium supplemented with 10% (v/v) bovine calf serum (CS), in a humidified atmosphere of 5% CO2 in air at 37° C. Quiescent cultures were prepared by subculturing stock cells from 100 mm dishes, using 0.05% (w/v) trypsin and 0.02% EDTA (w/v) in phosphate-buffered saline (PBS) and plating them in 24-well culture plates in DV medium supplemented with 10% (v/v) CS at 6×10^4 cells/cm^2. After allowing the cells to attach overnight, the medium was removed and the cells were rinsed with DV medium containing no serum. The cells were incubated in this serum-free medium for 48 hours before the indicated experiments. […] The effects of the synthetic peptides on DNA synthesis were determined by measuring the incorporation of methyl-[^3H]-thymidine (TdR, ICN Pharmaceuticals, Irvine, Calif.) during a 2 hour incubation generally from 22 hours after addition of peptides and/or thrombin (Stiernberg et al., J. Cell Physiol., 120:209-285 (1984)). After incubation, the cells were extracted and rinsed with ice-cold 10% (w/v) trichloroacetic acid (TCA). The acid precipitable material was dissolved overnight in 0.5 ml 0.5 N KOH at 23° C. HCl (1 N), 0.25 ml, was added and the solution was counted in 10 ml of RediSolv-HPb (Beckman Instruments, Houston, Tex.) scintillation fluid. The present inventors first tested the ability of p508-530 to stimulate DNA synthesis in non-proliferating cultures of ME or NIL cells. […] In order to explain the mechanism by which p517-520 was able to inhibit thrombin-mediated mitogenesis, the inventors measured the ability of increasing concentrations of alpha-thrombin to stimulate DNA synthesis in cultures to which a constant concentration (625 nM) of p517-520 had been added (FIG. 7). […]

Ends that are not written are not given here.

For “Arg-Gly-Ala-Ser (RGAS; printed: Arg-Gly-Ala-Ser) [reference compound]”, the “competition with [125I]-alpha-thrombin for binding” value in test [1] (concentration of 1.3 uM) is “did not compete”.
Consider “Arg-Gly-Asp-Ala (RGDA; Fragment of human prothrombin) [p517-520]”, for which, in test [2], the “promotion of fibroblast attachment” value was “comparable to that induced by fibronectin-specific peptides”. Moreover, in test [1], the “fold higher concentration than p508-530 required for 30% inhibition of [125I]-alpha-thrombin binding” value worked out at 50 fold, the “Conc. at Maximal % Inhibition” value was “(2.7 uM)”, the “Concentration Required for 30% Inhibition” value amounted to 300 nM and the “Maximal % Inhibition” value is 50%. Moreover, in test [3], the “mitogenesis (summary statement)” value is listed as “without inducing mitogenesis” and the “effect on alpha-thrombin stimulated DNA synthesis” value was “inhibited DNA synthesis”. In addition, the “molar excess of peptide required for inhibition of alpha-thrombin stimulation” value in test [4] was 500-1000 fold. For the same substance, in test [4] (0.8 nM alpha-thrombin), the “inhibition of alpha-thrombin stimulated DNA synthesis” value is listed as “approximately 75%”. In test [4] (13.0 nM alpha-thrombin), the “inhibition of alpha-thrombin stimulated DNA synthesis” value is given as around 35%.
For “DACEGDSGGPFV [p519-530, peptide representing residues 519 to 530 of the B-chain region of human prothrombin]”, in test [1], the “fold higher concentration than p508-530 required for 30% inhibition of [125I]-alpha-thrombin binding” value is reported as 33 fold, the “Conc. at Maximal % Inhibition” value is on record as “(800 Nm)”, the “Concentration Required for 30% Inhibition” value is reported as 200 nM and the “Maximal % Inhibition” value is on record as 51%. In test [3], the “mitogenesis (summary statement)” value is listed as “retains the ability to mediate mitogenesis but to a much lesser degree than p508-530” and the “effect on alpha-thrombin stimulated DNA synthesis” value is recorded as “enhanced DNA synthesis”.
Regarding “p510-526: peptide representing 510-526 of human prothrombin (TKPDEGKRGDACEGDSG; Fragment of human prothrombin)”, in test [2], the “promotion of fibroblast attachment” value is reported as “comparable to that induced by fibronectin-specific peptides”.
On to “p516-522: peptide representing 516-522 of human prothrombin (KRGDACE; Fragment of human prothrombin)”, for which the “promotion of fibroblast attachment” value in test [2] was “comparable to that induced by fibronectin-specific peptides”.
